Results as given in article PMC4778918, “Signal Transduction at the Domain Interface of Prokaryotic Pentameric Ligand-Gated Ion Channels” (PLoS Biology, 2016).
Values joined by “and” are separate entries in the source; they are usually repeats but may differ in a detail not shown here. Identical values can stand only once. Like-named read-outs stand apart in the source and are kept apart here.

Experiments:
[1] = target: ELIC ligand binding site mutant R91A; assay: SEC
ELIC WT [2] = target: T1, ELIC WT (Dickeya chrysanthemi, UniProt P0C7B7, INS163G); assay: Two-electrode voltage clamp dose-response, ELIC WT in X. laevis oocytes; format: cell-based, Erwinia chrisanthemi; settings: 0.5 mM Ca2+, mean of 4 oocytes
Text: X. laevis oocytes were obtained either from Ecocyte or from an in-house facility. Animal procedures and preparation of oocytes followed standard procedures and were in accordance with the Swiss Cantonal and Federal legislation relating to animal experimentation. Plasmid DNA containing the genes coding for the respective constructs for expression in X. laevis oocytes were linearized by MluI, and capped mRNA was transcribed with the mMessage mMachine kit (Ambion) and purified with the RNeasy kit (Qiagen). 10–200 ng of mRNA was injected into defolliculated X. laevis oocytes, which were subsequently incubated in Barth’s solution (88 mM NaCl, 1 mM KCl, 1 mM CaCl2, 0.33 mM Ca(NO3)2, 0.82 mM MgSO4, 10 mM Na-Hepes (pH 7.4) and 50 μg / ml Gentamycin) and stored at 16°C. One to three days after injection, two-electrode voltage clamp measurements were performed at 20°C (OC-725B, Warner Instrument Corp.). For ELIC, maximal currents were recorded in a bath solution containing 10 mM Hepes (pH 7), 130 mM NaCl, 2 mM KCl, 0.5 mM CaCl2 and either 5 mM or 25 mM Cysteamine. For GLIC, the maximal currents were recorded in a bath solution containing 10 mM Citrate (pH 4), 130 mM NaCl, 2 mM KCl, 1.8 mM CaCl2 and 1 mM MgCl2. Dose-response experiments were carried out at agonist concentrations indicated in the respective figures. Voltage was clamped at −40 mV, and data was filtered at 20 Hz unless stated otherwise. Surface expression in constructs containing an HA-tag was assayed after electrophysiological characterization as described. For that purpose, the oocytes were placed in a 96-well plate (TPP) and incubated in ND96 solution (93.5 mM NaCl, 2 mM KCl, 1.8 mM CaCl2, 2 mM MgCl2 and 10 mM Hepes, pH 7.4) containing 1% BSA for at least 30 min. All steps were carried out at 4°C with the same buffer unless mentioned otherwise. Oocytes were subsequently transferred into buffer containing 1 μg/ml rat monoclonal anti-HA antibody (3F10, Roche) for 1 h, washed 3 times and incubated with buffer containing 0.16 μg/ml horseradish peroxidase (HRP) coupled to a secondary antibody (HRP-conjugated goat anti-rat F(Ab)2 fragments, Jackson) for 30–60 min. The oocytes were washed 5 times with ND96 solution and subsequently transferred to a white 96-well plate (flat bottom, Nunclon Delta Surface). The solution was aspirated, 30 μl of Super Signal ELISA femto solutions 1 and 2 (Pierce) was added, and luminescence was quantitated with a Tecan infinite M1000 plate reader.

ELIC T28D [3] = target: T2, ELIC T28D (Dickeya chrysanthemi, UniProt P0C7B7, INS163G/T28D); format: cell-based, Erwinia chrisanthemi; settings: 0.5 mM Ca2+, mean of 5 oocytes
Text: (§1) X. laevis oocytes were obtained either from Ecocyte or from an in-house facility. Animal procedures and preparation of oocytes followed standard procedures and were in accordance with the Swiss Cantonal and Federal legislation relating to animal experimentation. Plasmid DNA containing the genes coding for the respective constructs for expression in X. laevis oocytes were linearized by MluI, and capped mRNA was transcribed with the mMessage mMachine kit (Ambion) and purified with the RNeasy kit (Qiagen). 10–200 ng of mRNA was injected into defolliculated X. laevis oocytes, which were subsequently incubated in Barth’s solution (88 mM NaCl, 1 mM KCl, 1 mM CaCl2, 0.33 mM Ca(NO3)2, 0.82 mM MgSO4, 10 mM Na-Hepes (pH 7.4) and 50 μg / ml Gentamycin) and stored at 16°C. One to three days after injection, two-electrode voltage clamp measurements were performed at 20°C (OC-725B, Warner Instrument Corp.). For ELIC, maximal currents were recorded in a bath solution containing 10 mM Hepes (pH 7), 130 mM NaCl, 2 mM KCl, 0.5 mM CaCl2 and either 5 mM or 25 mM Cysteamine. […] Dose-response experiments were carried out at agonist concentrations indicated in the respective figures. Voltage was clamped at −40 mV, and data was filtered at 20 Hz unless stated otherwise.

ELIC ΔL29 = ELIC ΔL29 (Dickeya chrysanthemi, UniProt P0C7B7, DEL29-29/INS163G); format: cell-based, Erwinia chrisanthemi; settings: ELIC woL29 (deletion of Leu29), 0.5 mM Ca2+, mean of 4 oocytes
Text: as §1

ELIC T28A = ELIC T28A (Dickeya chrysanthemi, UniProt P0C7B7, INS163G/T28A); format: cell-based, Erwinia chrisanthemi; settings: for I/Imax mean: ELIC T28A, 0.5 mM Ca2+, mean of 4 oocytes
Text: as §1

ELIC L29A = ELIC L29A (Dickeya chrysanthemi, UniProt P0C7B7, INS163G/L29A); format: cell-based, Erwinia chrisanthemi; settings: 0.5 mM Ca2+, mean of 3 oocytes
Text: as §1

ELIC P254A = ELIC P254A (Dickeya chrysanthemi, UniProt P0C7B7, P253A); format: cell-based, Erwinia chrisanthemi
Text: as §1

ELIC R91A = ELIC R91A (Dickeya chrysanthemi, UniProt P0C7B7, INS163G/R91A); assay: biochemical; format: binding, Erwinia chrisanthemi; settings: read-out: Keff
ELIC R91A/Y258A = ELIC R91A/Y258A (Dickeya chrysanthemi, UniProt P0C7B7, R91A/Y257A); assay: biochemical; format: binding, Erwinia chrisanthemi; settings: read-out: Keff
ELIC R91A/F116A = ELIC R91A/F116A (Dickeya chrysanthemi, UniProt P0C7B7, F116A/R91A); assay: biochemical; format: binding, Erwinia chrisanthemi; settings: read-out: Keff
ELIC T28D [4] = target: T2, ELIC T28D; assay: biochemical; format: binding, Erwinia chrisanthemi; settings: ITC
ELIC WT [5] = target: T1, ELIC WT; assay: biochemical; format: binding, Erwinia chrisanthemi
ELIC = system: ELIC; parameters: method as in PMID 21713033; settings: two-electrode voltage clamp recordings, ELIC WT, in the absence of Ca2+; cited from earlier work
ELIC resting state = settings: kinetic analysis of single channel recordings of ELIC; read-out: dissociation constant to the resting state; cited from earlier work
[6] = target: ELIC double mutant R91A/Y258A; assay: SEC
[7] = target: the molecule itself; assay: SEC; gel filtration on Superdex 200 at 4°C in buffer with 0.145% UDM after removal of His10-MBP; pentamer peak pooled for ITC
SEC = target: the molecule itself; assay: SEC

## ELIC ligand binding site mutant R91A (receptor)
[1]
  stoichiometry N: 5

## NCCS [cysteamine]
ELIC WT [2]; conc cys. 0.1 (mM)
  I/Imax mean: 0.00
ELIC WT [2]; conc cys. 0.25 (mM)
  I/Imax mean: 0.00655
ELIC WT [2]; conc cys. 0.5 (mM)
  I/Imax mean: 0.09
ELIC WT [2]; conc cys. 0.75 (mM)
  I/Imax mean: 0.32
ELIC WT [2]; conc cys. 1 (mM)
  I/Imax mean: 0.54
ELIC WT [2]; conc cys. 5 (mM)
  I/Imax mean: 1.00
ELIC T28D [3]; conc cys. 0.01 (mM)
  I/Imax mean: 0.13
ELIC T28D [3]; conc cys. 0.025 (mM)
  I/Imax mean: 0.63
ELIC T28D [3]; conc cys. 0.05 (mM)
  I/Imax mean: 0.96
ELIC T28D [3]; conc cys. 0.1 (mM)
  I/Imax mean: 1.00
ELIC ΔL29; conc cys. 0.25 (mM)
  I/Imax mean: 0.10
ELIC ΔL29; conc cys. 0.5 (mM)
  I/Imax mean: 0.43
ELIC ΔL29; conc cys. 0.75 (mM)
  I/Imax mean: 0.64
ELIC ΔL29; conc cys. 1 (mM)
  I/Imax mean: 0.86
ELIC ΔL29; conc cys. 2.5 (mM)
  I/Imax mean: 1.00
ELIC T28A; ELIC T28A versus WT, two-electrode voltage clamp
  EC50 higher than WT: 3.5 fold
ELIC T28A; conc cys. 1.00 (mM)
  I/Imax mean: 0.0138
ELIC T28A; conc cys. 2.50 (mM)
  I/Imax mean: 0.34
ELIC T28A; conc cys. 5.00 (mM)
  I/Imax mean: 0.56
ELIC T28A; conc cys. 10.00 (mM)
  I/Imax mean: 0.83
ELIC T28A; conc cys. 25.00 (mM)
  I/Imax mean: 1.00
ELIC L29A; conc cys. 0.1 (mM)
  I/Imax mean: 0.16
ELIC L29A; conc cys. 0.25 (mM)
  I/Imax mean: 0.69
ELIC L29A; conc cys. 0.35 (mM)
  I/Imax mean: 0.79
ELIC L29A; conc cys. 0.5 (mM)
  I/Imax mean: 0.88
ELIC L29A; conc cys. 0.75 (mM)
  I/Imax mean: 1.00
ELIC P254A; conc cys. 0.25 (unit not given)
  I/Imax mean: 0.0189
ELIC P254A; conc cys. 0.5 (unit not given)
  I/Imax mean: 0.14
ELIC P254A; conc cys. 0.5 (unit not given), listed as cys.
  I/Imax, single oocyte: 0.13 and 0.12 and 0.19
ELIC P254A; conc cys. 0.75 (unit not given)
  I/Imax mean: 0.41
ELIC P254A; conc cys. 0.75 (unit not given), listed as cys.
  I/Imax, single oocyte: 0.33 and 0.45 and 0.39 and 0.42
ELIC P254A; conc cys. 1 (unit not given)
  I/Imax mean: 0.51
ELIC P254A; conc cys. 1 (unit not given), listed as cys.
  I/Imax, single oocyte: 0.42 and 0.56 and 0.47
ELIC P254A; conc cys. 2.5 (unit not given)
  I/Imax mean: 0.90
ELIC P254A; conc cys. 2.5 (unit not given), listed as cys.
  I/Imax, single oocyte: 0.82 and 0.97 and 0.85 and 0.95 and 0.92
ELIC P254A; conc cys. 5 (unit not given)
  I/Imax mean: 1.00
  I/Imax, single oocyte: 1.00

## CC(=O)OCC[N+](C)(C)C [acetylcholine]
ELIC R91A
  Kd: 1400 µM
ELIC R91A/Y258A
  Kd: 2000 µM
ELIC R91A/F116A
  Kd: 1800 µM
ELIC T28D [4]; ELIC T28D versus WT
  binding of the antagonist compared to WT: unchanged

## CCCN [propylamine]
ELIC R91A; ITC, ELIC ligand binding site mutant R91A, 4°C
  Kd: 1100 µM
ELIC WT [5]
  Keff (ITC) higher than EC50 (two-electrode voltage clamp): about 20 fold
ELIC WT [5]; ITC, ELIC WT in detergent (UDM), 4°C, single-site isotherm, read-out: effective dissociation constant (Keff)
  Kd: 8000 µM
ELIC R91A/Y258A; ITC, ELIC double mutant R91A/Y258A, 4°C
  Kd: 900 µM
ELIC R91A/F116A; ITC, ELIC double mutant R91A/F116A, 4°C
  Kd: 800 µM
ELIC
  EC50: 450 µM
ELIC T28D [4]; ELIC T28D versus WT
  decrease in Keff concentration compared to WT: 90 fold
ELIC T28D [4]; ELIC mutant T28D, agonist, read-out: Keff
  Kd: 90 µM
ELIC resting state
  Kd: 7100 µM

## ELIC double mutant R91A/Y258A (receptor)
[6]
  stoichiometry N: 5

B1: ELIC wild type (receptor)
chain: APADNAADARPVDVSVSIFINKIYGVNTLEQTYKVDGYIVAQWTGKPRKTPGDKPLIVENTQIERWINNGLWVPALEFINVVGSPDTGNKRLMLFPDGRVIYNARFLGSFSNDMDFRLFPFDRQQFVLELEPFSYNNQQLRFSDIQVYTENIDNEEIDEWWIRKASTHISDIRYDHLSSVQPNQNEFSRITVRIDAVRNPSYYLWSFILPLGLIIAASWSVFWLESFSERLQTSFTLMLTVVAYAFYTSNILPRLPYTTVIDQMIIAGYGSIFAAILLIIFAHHRQAMGVEDDLLIQRCRLAFPLGFLAIGCVLVIRGITL
notes: ELIC, prokaryotic pentameric ligand-gated ion channel; GenBank WP_013319743 printed; Homopentamer; purified for ITC with small-molecule ligands; also called ELIC WT; source: E. coli BL21-DE3, purified (extracted in UDM, Ni-NTA, HRV 3C cleavage, Superdex 200 gel filtration); not shown: His10, N-terminal, cleaved
[7]
  stoichiometry N: 5

B2: ELIC double mutant R91A/F116A (receptor)
chain: APADNAADARPVDVSVSIFINKIYGVNTLEQTYKVDGYIVAQWTGKPRKTPGDKPLIVENTQIERWINNGLWVPALEFINVVGSPDTGNKALMLFPDGRVIYNARFLGSFSNDMDARLFPFDRQQFVLELEPFSYNNQQLRFSDIQVYTENIDNEEIDEWWIRKASTHISDIRYDHLSSVQPNQNEFSRITVRIDAVRNPSYYLWSFILPLGLIIAASWSVFWLESFSERLQTSFTLMLTVVAYAFYTSNILPRLPYTTVIDQMIIAGYGSIFAAILLIIFAHHRQAMGVEDDLLIQRCRLAFPLGFLAIGCVLVIRGITL
notes: source: E. coli BL21-DE3, purified (extracted in UDM, Ni-NTA, HRV 3C cleavage, Superdex 200 gel filtration)
SEC
  stoichiometry N: 5
